Data published in US11427548B2 (Arvinas Operations, Inc., priority 2015, dated 2022).
Like-named read-outs stand apart in the source and are kept apart here.

Columns and labels:
Androgen Receptor [1] = biological target: T1, Androgen Receptor (Homo sapiens, UniProt P10275+P40337, T878A); assay: Androgen Receptor ELISA assay (PathScan AR ELISA) in LNCaP cells: AR degradation, Dmax and DC50; format: cell-based; details: for DC50: concentration that caused 50% Androgen Receptor degradation; for Dmax: highest percentage of Androgen Receptor degradation observed
T1 construct: Compounds have been evaluated in this assay in LNCaP and/or VCaP cells utilizing similar protocols; endogenous in cells; host or cells: LNCaP cells
T1 sequence (P10275 whole entry T878A): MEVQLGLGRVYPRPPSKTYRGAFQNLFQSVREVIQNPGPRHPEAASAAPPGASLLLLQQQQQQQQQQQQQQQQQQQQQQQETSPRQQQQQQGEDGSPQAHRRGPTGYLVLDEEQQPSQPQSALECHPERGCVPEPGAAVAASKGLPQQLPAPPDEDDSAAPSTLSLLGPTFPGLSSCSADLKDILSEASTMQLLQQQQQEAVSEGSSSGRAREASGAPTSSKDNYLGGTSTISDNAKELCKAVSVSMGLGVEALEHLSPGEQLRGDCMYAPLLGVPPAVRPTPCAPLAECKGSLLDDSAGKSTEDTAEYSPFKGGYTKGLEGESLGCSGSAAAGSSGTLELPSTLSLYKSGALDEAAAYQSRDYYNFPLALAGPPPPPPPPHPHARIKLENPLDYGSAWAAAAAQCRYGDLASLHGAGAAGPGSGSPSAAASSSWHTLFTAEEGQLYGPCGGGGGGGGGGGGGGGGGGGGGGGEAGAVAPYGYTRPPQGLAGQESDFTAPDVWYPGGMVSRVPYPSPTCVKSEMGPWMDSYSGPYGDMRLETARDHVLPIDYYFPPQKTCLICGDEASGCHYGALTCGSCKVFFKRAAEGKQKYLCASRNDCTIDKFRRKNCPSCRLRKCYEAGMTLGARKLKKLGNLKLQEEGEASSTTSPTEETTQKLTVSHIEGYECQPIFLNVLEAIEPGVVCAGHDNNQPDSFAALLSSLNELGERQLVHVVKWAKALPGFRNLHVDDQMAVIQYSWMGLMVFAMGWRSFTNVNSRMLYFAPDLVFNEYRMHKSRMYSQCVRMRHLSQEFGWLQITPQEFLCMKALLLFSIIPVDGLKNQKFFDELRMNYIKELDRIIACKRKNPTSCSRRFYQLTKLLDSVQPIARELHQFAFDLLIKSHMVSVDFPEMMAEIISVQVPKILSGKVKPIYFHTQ
T1 sequence (P40337 whole entry): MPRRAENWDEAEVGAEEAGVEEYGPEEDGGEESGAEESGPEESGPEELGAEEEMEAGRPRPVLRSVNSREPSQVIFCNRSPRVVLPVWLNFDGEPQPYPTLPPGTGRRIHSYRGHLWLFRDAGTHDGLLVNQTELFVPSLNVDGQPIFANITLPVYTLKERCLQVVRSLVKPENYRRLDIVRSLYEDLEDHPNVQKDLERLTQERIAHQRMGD
T1 sequence (Q15369 whole entry partner): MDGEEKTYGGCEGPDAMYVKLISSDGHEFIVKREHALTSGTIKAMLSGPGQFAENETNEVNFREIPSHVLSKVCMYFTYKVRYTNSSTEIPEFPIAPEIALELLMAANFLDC
T1 sequence (Q15370 whole entry partner): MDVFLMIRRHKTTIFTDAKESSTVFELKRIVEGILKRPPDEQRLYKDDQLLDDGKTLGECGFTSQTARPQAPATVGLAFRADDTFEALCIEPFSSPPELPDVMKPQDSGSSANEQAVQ

Androgen Receptor [2] = biological target: T2, Androgen Receptor (Homo sapiens, UniProt P10275); assay: Androgen Receptor ELISA assay (PathScan AR ELISA) in VCaP cells: AR degradation, Dmax and DC50; format: cell-based
T2 construct: endogenous in cells; host or cells: VCaP cells
T2 sequence (P10275 1-920): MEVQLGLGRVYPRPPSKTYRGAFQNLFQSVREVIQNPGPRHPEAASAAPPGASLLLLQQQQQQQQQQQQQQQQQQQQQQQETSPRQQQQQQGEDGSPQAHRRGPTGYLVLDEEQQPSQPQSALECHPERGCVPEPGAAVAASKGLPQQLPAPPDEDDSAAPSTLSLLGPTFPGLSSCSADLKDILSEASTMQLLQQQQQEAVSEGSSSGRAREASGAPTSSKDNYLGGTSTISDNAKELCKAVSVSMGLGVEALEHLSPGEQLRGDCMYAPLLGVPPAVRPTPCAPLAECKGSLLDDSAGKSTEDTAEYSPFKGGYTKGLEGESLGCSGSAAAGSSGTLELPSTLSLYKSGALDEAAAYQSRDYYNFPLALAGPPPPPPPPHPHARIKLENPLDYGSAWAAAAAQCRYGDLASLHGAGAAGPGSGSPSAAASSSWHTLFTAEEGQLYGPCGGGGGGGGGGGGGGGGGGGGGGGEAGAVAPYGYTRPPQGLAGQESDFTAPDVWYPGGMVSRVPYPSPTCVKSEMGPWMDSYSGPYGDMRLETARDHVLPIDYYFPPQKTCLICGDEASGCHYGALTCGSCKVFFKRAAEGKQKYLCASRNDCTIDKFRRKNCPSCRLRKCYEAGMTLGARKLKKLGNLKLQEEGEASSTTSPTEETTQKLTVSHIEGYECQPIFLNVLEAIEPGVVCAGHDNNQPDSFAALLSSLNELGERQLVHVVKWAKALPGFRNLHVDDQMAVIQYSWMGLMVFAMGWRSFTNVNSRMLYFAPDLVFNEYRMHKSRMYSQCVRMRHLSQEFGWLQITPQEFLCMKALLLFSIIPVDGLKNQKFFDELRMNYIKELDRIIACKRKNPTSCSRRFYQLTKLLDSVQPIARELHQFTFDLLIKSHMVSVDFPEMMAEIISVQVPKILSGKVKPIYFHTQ
Outline: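 VCaP cells in phenol red-free RPMI with 5% charcoal-stripped FBS were grown at least 3 days, then given compound as 7 half-log doses in 0.1% DMSO with 0.1 nM R1881 for 24 h. Lysates went into a sandwich AR ELISA with TMB read at 450 nm.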

[3] = read-out: VCaP DC50; concentration that caused 50% Androgen Receptor degradation, VCaP cells
[4] = VCaP, highest percentage of Androgen Receptor degradation observed, VCaP cells; read-out: VCaP Dmax (%)
[5] = concentration that caused 50% Androgen Receptor degradation, VCaP cells; read-out: VCaP DC50

Row | Structure (SMILES) | DC50 (Androgen Receptor [1]) | Dmax (Androgen Receptor [1]) | Dmax (Androgen Receptor [2]; VCaP, read-out: VCaP Dmax (%)) | DC50 (Androgen Receptor [2]; [3]) | Dmax (Androgen Receptor [2]; [4]) | DC50 (Androgen Receptor [2]; [5])
1 | Cc1ncsc1-c1ccc(CNC(=O)[C@@H]2C[C@@H](O)CN2C(=O)[C@@H](NC(=O)CO[C@H](C)[C@@H](C)OCCOCCOc2ccc(N3C(=S)N(c4ccc(C#N)c(C(F)(F)F)c4)C(=O)C3(C)C)cc2)C(C)(C)C)cc1 [Example 22, (2S,4R)-1-[(2S)-2-(2-{[(2R,3R)-3-{2-[2-(4-{3-[4-cyano-3-(trifluoromethyl)phenyl]-5,5-dimethyl-4-oxo-2-sulfanylideneimidazolidin-1-yl}phenoxy)ethoxy]ethoxy}butan-2-yl]oxy}acetamido)-3,3-dimethylbutanoyl]-4-hydroxy-N-{[4-(4-methyl-1,3-thiazol-5-yl)phenyl]methyl}pyrrolidine-2-carboxamide] | < 50 nM | 51 to 70% | 26 to 50% | 51 to 500 nM |  | 
2 | Cc1ncsc1-c1ccc([C@H](C)NC(=O)[C@@H]2C[C@@H](O)CN2C(=O)[C@@H](NC(=O)COCCCCOCCCCOc2ccc(N3C(=S)N(c4ccc(C#N)c(C(F)(F)F)c4)C(=O)C3(C)C)cc2F)C(C)(C)C)cc1 [Example 25, (2S,4R)-1-[(2S)-2-(2-{4-[4-(4-{3-[4-cyano-3-(trifluoromethyl)phenyl]-5,5-dimethyl-4-oxo-2-sulfanylideneimidazolidin-1-yl}-2-fluorophenoxy)butoxy]butoxy}acetamido)-3,3-dimethylbutanoyl]-4-hydroxy-N-[(lS)-1-[4-(4-methyl-1,3-thiazol-5-yl)phenyl]ethyl]pyrrolidine-2-carboxamide] | < 50 nM | > 71% | 51 to 70% | < 50 nM |  | 
3 | Cc1ncsc1-c1ccc(CNC(=O)[C@@H]2C[C@@H](O)CN2C(=O)[C@@H](NC(=O)COCCCOCCCCOc2ccc(N3C(=S)N(c4ccc(C#N)c(C(F)(F)F)c4)C(=O)C3(C)C)cc2F)C(C)(C)C)cc1 [Example 27, (2S,4R)-1-[(2S)-2-(2-{3-[4-(4-{3-[4-cyano-3-(trifluoromethyl)phenyl]-5,5-dimethyl-4-oxo-2-sulfanylideneimidazolidin-1-yl}-2-fluorophenoxy)butoxy]propoxy}acetamido)-3,3-dimethylbutanoyl]-4-hydroxy-N-{[4-(4-methyl-1,3-thiazol-5-yl)phenyl]methyl}pyrrolidine-2-carboxamide] | < 50 nM | > 71% | > 71% | < 50 nM |  | 
4 | Cc1ncsc1-c1ccc(CNC(=O)[C@@H]2C[C@@H](O)CN2C(=O)[C@@H](NC(=O)COCCCOCCCCOc2ccc(N3C(=S)N(c4ccc(C#N)c(C(F)(F)F)c4)C(=O)C3(C)C)cc2)C(C)(C)C)cc1 [Example 28, (2S,4R)-1-[(2S)-2-(2-{3-[4-(4-{3-[4-cyano-3-(trifluoromethyl)phenyl]-5,5-dimethyl-4-oxo-2-sulfanylideneimidazolidin-1-yl}phenoxy)butoxy]propoxy}acetamido)-3,3-dimethylbutanoyl]-4-hydroxy-N-{[4-(4-methyl-1,3-thiazol-5-yl)phenyl]methyl}pyrrolidine-2-carboxamide] | < 50 nM | > 71% | 51 to 70% | < 50 nM |  | 
5 | Cc1ncsc1-c1ccc(CNC(=O)[C@@H]2C[C@@H](O)CN2C(=O)[C@@H](NC(=O)COCCCOCCCCOc2ccc(N3C(=S)N(c4ccc(C#N)c(C(F)(F)F)c4)C(=O)C3(C)C)cc2)C(C)C)cc1 [Example 29, (2S,4R)-1-[(2S)-2-(2-{3-[4-(4-{3-[4-cyano-3-(trifluoromethyl)phenyl]-5,5-dimethyl-4-oxo-2-sulfanylideneimidazolidin-1-yl}phenoxy)butoxy]propoxy}acetamido)-3-methylbutanoyl]-4-hydroxy-N-{[4-(4-methyl-1,3-thiazol-5-yl)phenyl]methyl}pyrrolidine-2-carboxamide] | 51 to 500 nM | 51 to 70% | 51 to 70% |  |  | 
6 | Cc1ncsc1-c1ccc(CNC(=O)[C@@H]2C[C@@H](O)CN2C(=O)[C@@H](NC(=O)COCCCOCCCCOc2ccc(N3C(=S)N(c4cnc(C#N)c(C(F)(F)F)c4)C(=O)C3(C)C)cc2)C(C)(C)C)cc1 [Example 30, (2S,4R)-1-[(2S)-2-(2-{3-[4-(4-{3-[6-cyano-5-(trifluoromethyl)pyridin-3-yl]-5,5-dimethyl-4-oxo-2-sulfanylideneimidazolidin-1-yl}phenoxy)butoxy]propoxy}acetamido)-3,3-dimethylbutanoyl]-4-hydroxy-N-{[4-(4-methyl-1,3-thiazol-5-yl)phenyl]methyl}pyrrolidine-2-carboxamide] | < 50 nM | > 71% |  |  | > 71% | < 50 nM
7 | Cc1ncsc1-c1ccc(CNC(=O)[C@@H]2C[C@@H](O)CN2C(=O)[C@@H](NC(=O)COCCCOCCCCOc2ccc(N3C(=S)N(c4ccc(C#N)c(Cl)c4)C(=O)C3(C)C)cc2)C(C)(C)C)cc1 [Example 31, (2S,4R)-1-[(2S)-2-{2-[3-(4-{4-[3-(3-chloro-4-cyanophenyl)-5,5-dimethyl-4-oxo-2-sulfanylideneimidazolidin-1-yl]phenoxy}butoxy)propoxy]acetamido}-3,3-dimethylbutanoyl]-4-hydroxy-N-{[4-(4-methyl-1,3-thiazol-5-yl)phenyl]methyl}pyrrolidine-2-carboxamide] | < 50 nM | > 71% | > 71% | < 50 nM |  | 
8 | COc1cc(N2C(=O)C(C)(C)N(c3ccc(OCCCCOCCCOCC(=O)N[C@H](C(=O)N4C[C@H](O)C[C@H]4C(=O)NCc4ccc(-c5scnc5C)cc4)C(C)(C)C)cc3)C2=S)ccc1C#N [Example 32, (2S,4R)-1-[(2S)-2-{2-[3-(4-{4-[3-(4-cyano-3-methoxyphenyl)-5,5-dimethyl-4-oxo-2-sulfanylideneimidazolidin-1-yl]phenoxy}butoxy)propoxy]acetamido}-3,3-dimethylbutanoyl]-4-hydroxy-N-{[4-(4-methyl-1,3-thiazol-5-yl)phenyl]methyl}pyrrolidine-2-carboxamide] | < 50 nM | > 71% |  |  | 51 to 70% | < 50 nM
9 | Cc1ncsc1-c1ccc(CNC(=O)[C@@H]2C[C@@H](O)CN2C(=O)[C@@H](NC(=O)COCCCCOCCCOc2ccc(N3C(=S)N(c4ccc(C#N)c(C(F)(F)F)c4)C(=O)C3(C)C)cc2)C(C)(C)C)cc1 [Example 52, (2S,4R)-1-[(2S)-2-(2-{4-[3-(4-{3-[4-cyano-3-(trifluoromethyl)phenyl]-5,5-dimethyl-4-oxo-2-sulfanylideneimidazolidin-1-yl}phenoxy)propoxy]butoxy}acetamido)-3,3-dimethylbutanoyl]-4-hydroxy-N-{[4-(4-methyl-1,3-thiazol-5-yl)phenyl]methyl}pyrrolidine-2-carboxamide] | < 50 nM | > 71% | > 71% | < 50 nM |  | 
10 | Cc1ncsc1-c1ccc(CNC(=O)[C@@H]2C[C@@H](O)CN2C(=O)[C@@H](NC(=O)COCC#CC#CCOc2ccc(N3C(=S)N(c4ccc(C#N)c(C(F)(F)F)c4)C(=O)C3(C)C)cc2)C(C)(C)C)cc1 [Example 54, (2S,4R)-1-((S)-2-(2-(6-(4-(3-(4-cyano-3-(trifluoromethyl)phenyl)-5,5-dimethyl-4-oxo-2-thioxoimidazolidin-1-yl)phenoxy)hexa-2,4-diynyloxy)acetamido)-3,3-dimethylbutanoyl)-4-hydroxy-N-(4-(4-methylthiazol-5-yl)benzyl)pyrrolidine-2-carboxamide] | > 501 nM | < 25% | > 71% |  |  | 
11 | Cc1ncsc1-c1ccc(CNC(=O)[C@@H]2C[C@@H](O)CN2C(=O)[C@@H](NC(=O)CCOCC#CC#CCOc2ccc(N3C(=S)N(c4ccc(C#N)c(C(F)(F)F)c4)C(=O)C3(C)C)cc2)C(C)(C)C)cc1 [Example 55, (2S,4R)-1-[(2S)-2-(3-{[6-(4-{3-[4-cyano-3-(trifluoromethyl)phenyl]-5,5-dimethyl-4-oxo-2-sulfanylideneimidazolidin-1-yl}phenoxy)hexa-2,4-diyn-1-yl]oxy}propanamido)-3,3-dimethylbutanoyl]-4-hydroxy-N-{[4-(4-methyl-1,3-thiazol-5-yl)phenyl]methyl}pyrrolidine-2-carboxamide] | > 501 nM | 26 to 50% | 51 to 70% |  |  | 
